# Assay results as given in patent US12534457B2, “Heteroaryl derivative compounds, and uses thereof” (Voronoi Inc., priority 2021, dated 2026).
# Tested on: Ba/F3 cells expressing EGFR Del19/C797S (EGFR DC)
# Assay: Proliferation inhibitory activity, Ba/F3 cells expressing EGFR Del19/C797S (CellTiter-Glo)
# Assay type: cell-based
# Conditions: Mus musculus, BaF3, 72 hours of compound treatment
# Procedure, shortened: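 Viability after 72 h of compound exposure was measured by luminescence (CellTiter-Glo) in Ba/F3 lines transduced with mutant EGFR. Final concentrations spanned 0.2 nM–5 μM over 12 threefold steps. Growth relative to untreated control gave GI50 values; each test was run three times.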
row,GI50 [nM],SMILES
1,< 50,"CCC(=O)Nc1cc(Nc2cc(N3OCC[C@@H]3c3cc(F)cc(F)c3)ncn2)c(OC)cc1N1CCC(N2CCC(N(C)C)CC2)CC1 [Example 85, (R)—N-(5-((6-(3-(3,5-difluorophenyl)isoxazolidin-2-yl)pyrimidin-4-yl)amino)-2-(4-(dimethylamino)-[1,4′-bipiperidin]-1′-yl)-4-methoxyphenyl)propionamide]"
2,50 to 500,"COc1cc(N2CCC(N3CCN(C)CC3)CC2)ccc1Nc1cc(N2OCC[C@@H]2c2ccc(F)c(Cl)c2F)ncn1 [Example 130, (R)-6-(3-(3-chloro-2,4-difluorophenyl)isoxazolidin-2-yl)-N-(2-methoxy-4-(4-(4-methylpiperazin-1-yl)piperidin-1-yl)phenyl)pyrimidin-4-amine]"
3,< 50,"Cn1cc(-c2cc(Nc3cc(N4OCC[C@@H]4c4ccccc4)ncn3)c(OCC(F)(F)F)cc2N2CCC(N3CCOCC3)CC2)cn1 [Example 165, (R)—N-(5-(1-methyl-1H-pyrazol-4-yl)-4-(4-morpholinopiperidin-1-yl)-2-(2,2,2-trifluoroethoxy)phenyl)-6-(3-phenylisoxazolidin-2-yl)pyrimidin-4-amine]"
4,< 50,"COc1cc(N2CCC(N3CCN(C)C(=O)C3)CC2)ccc1Nc1cc(N2OCC[C@@H]2c2cccc(F)c2F)ncn1 [Example 224, (R)-4-(1-(4-((6-(3-(2,3-difluorophenyl)isoxazolidin-2-yl)pyrimidin-4-yl)amino)-3-methoxyphenyl)piperidin-4-yl)-1-methylpiperazin-2-one]"
5,50 to 500,"COc1cc(N2CCC(N3CCN(C)CC3)CC2)ccc1Nc1ncnc(N2OCC[C@@H]2c2ccccc2)n1 [Example 112, (R)—N-(2-methoxy-4-(4-(4-methylpiperazin-1-yl)piperidin-1-yl)phenyl)-4-(3-phenylisoxazolidin-2-yl)-1,3,5-triazin-2-amine]"
6,50 to 500,"Fc1cccc([C@H]2CCON2c2cc(Nc3ccc([C@H]4CCON4)cc3)ncn2)c1F [Example 174, 6-((R)-3-(2,3-difluorophenyl)isoxazolidin-2-yl)-N-(4-((R)-isoxazolidin-3-yl)phenyl)pyrimidin-4-amine]"
7,< 50,"CN1CCN(C2CCN(c3cc(OCC(F)(F)F)c(Nc4cc(N5OCC[C@@H]5c5ccccc5)ncn4)cc3-c3cnn(C)c3)CC2)CC1 [Example 164, (R)—N-(5-(1-methyl-1H-pyrazol-4-yl)-4-(4-(4-methylpiperazin-1-yl)piperidin-1-yl)-2-(2,2,2-trifluoroethoxy)phenyl)-6-(3-phenylisoxazolidin-2-yl)pyrimidin-4-amine]"
8,< 50,"CCN1CCN(C2CCN(c3ccc(Nc4cc(N5OCC[C@@H]5c5ccccc5)ncn4)c(OC)c3)CC2)CC1 [Example 118, (R)—N-(4-(4-(4-ethylpiperazin-1-yl)piperidin-1-yl)-2-methoxyphenyl)-6-(3-phenylisoxazolidin-2-yl)pyrimidin-4-amine]"
9,50 to 500,"COc1cc(N2CCC(N3CCN(C)CC3)CC2)ccc1Nc1cc(N2OCC[C@@H]2c2ccc3ccccc3c2)ncn1 [Example 89, (R)—N-(2-methoxy-4-(4-(4-methylpiperazin-1-yl)piperidin-1-yl)phenyl)-6-(3-(naphthalen-2-yl)isoxazolidin-2-yl)pyrimidin-4-amine]"
10,50 to 500,"CN(C)CCN(C)c1ccc(Nc2cc(N3OCC[C@@H]3c3cc(F)cc(F)c3)ncn2)cc1 [Example 19, (R)—N^1-(6-(3-(3,5-difluorophenyl)isoxazolidin-2-yl)pyrimidin-4-yl)-N^4-(2-(dimethylamino)ethyl)-N^4-methylbenzene-1,4-diamine]"
11,< 50,"COc1cc(SCCN(C)C)ccc1Nc1cc(N2OCC[C@@H]2c2ccccc2)ncn1 [Example 65, (R)—N-(4-((2-(dimethylamino)ethyl)thio)-2-methoxyphenyl)-6-(3-phenylisoxazolidin-2-yl)pyrimidin-4-amine]"
